Results reported in ChEMBL document CHEMBL3763096, “8-Halo-substituted naphtho[2,3-b]thiophene-4,9-diones as redox-active inhibitors of keratinocyte hyperproliferation with reduced membrane-damaging properties” (Eur J Med Chem, 2016).
pIC50: −log10 of the molar value. Calls of active or inactive are those of the source. The calls are words filed in the database; no cut-off is given here.

Columns and labels:
HaCaT [1] = assay: Increase in superoxide generation in human HaCaT cells at 5 uM incubated for 18 hrs by DHE-based flow cytometric analysis; type: functional, cell-based
[2] = biological target: T1, NADPH--cytochrome P450 reductase (Homo sapiens, UniProt P16435); assay: Activity at human recombinant CPR assessed as superoxide generation at 100 umol/ml by spectrophotometric assay
T1 sequence (P16435 whole entry): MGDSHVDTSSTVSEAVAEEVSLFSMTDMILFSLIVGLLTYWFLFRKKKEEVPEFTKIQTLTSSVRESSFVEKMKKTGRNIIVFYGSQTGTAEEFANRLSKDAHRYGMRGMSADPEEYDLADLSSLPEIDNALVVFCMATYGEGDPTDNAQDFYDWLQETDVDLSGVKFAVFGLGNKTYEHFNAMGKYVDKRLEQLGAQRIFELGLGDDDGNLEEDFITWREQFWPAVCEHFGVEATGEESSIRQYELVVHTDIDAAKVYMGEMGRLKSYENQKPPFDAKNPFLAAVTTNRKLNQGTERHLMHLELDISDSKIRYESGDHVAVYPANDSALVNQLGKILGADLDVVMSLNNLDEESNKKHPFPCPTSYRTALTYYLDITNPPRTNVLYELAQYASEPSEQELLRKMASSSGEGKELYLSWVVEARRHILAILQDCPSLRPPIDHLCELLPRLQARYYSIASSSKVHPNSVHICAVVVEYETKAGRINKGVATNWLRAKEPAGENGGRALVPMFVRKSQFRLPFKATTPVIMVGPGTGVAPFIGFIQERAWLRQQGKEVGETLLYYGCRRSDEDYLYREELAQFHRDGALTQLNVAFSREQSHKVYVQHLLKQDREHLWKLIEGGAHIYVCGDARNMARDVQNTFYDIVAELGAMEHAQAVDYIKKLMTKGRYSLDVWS

HaCaT [3] = assay: Cytotoxicity against human HaCaT cells assessed as LDH level at 2 uM incubated for 4 hrs; type: cell-based
HaCaT [4] = assay: Increase in superoxide generation in human HaCaT cells at 5 uM incubated for 18 hrs pretreated with 5 umol/L NQO1 inhibitor dicoumarol for 25 mins followed by compound addition by DHE-based flow cytometric analysis; type: functional, cell-based
HaCaT [5] = assay: Antihyperproliferative activity against human HaCaT cells after 48 hrs by phase contrast microscopic analysis; type: functional, cell-based
[6] = biological target: NAD(P)H dehydrogenase [quinone] 1 (Homo sapiens) (UniProt P15559); assay: Activity at human recombinant NQO1 assessed as superoxide generation at 25 umol/ml by spectrophotometric assay
Sequence of NAD(P)H dehydrogenase [quinone] 1 (Homo sapiens) (P15559 whole entry): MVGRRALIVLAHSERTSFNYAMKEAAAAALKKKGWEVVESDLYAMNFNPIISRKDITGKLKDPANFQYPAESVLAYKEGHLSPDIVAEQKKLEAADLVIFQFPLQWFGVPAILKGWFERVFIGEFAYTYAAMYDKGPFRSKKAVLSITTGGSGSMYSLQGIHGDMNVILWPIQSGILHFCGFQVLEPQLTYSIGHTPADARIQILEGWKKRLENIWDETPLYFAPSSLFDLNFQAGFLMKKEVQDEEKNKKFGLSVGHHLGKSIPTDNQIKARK

SMILES	Activity (HaCaT [3]) [mU/ml]	pIC50 (HaCaT [5])	further results
CC(=O)c1cc2c(s1)C(=O)c1c(O)cccc1C2=O	319		Activity (HaCaT [1]): Active; Activity [2]: Active; Activity (HaCaT [4]): Active
O=C(c1cccnc1)c1cc2c(s1)C(=O)c1c(Cl)cccc1C2=O	125	6.24	
O=C(Nc1ccccc1)c1cc2c(s1)C(=O)c1c(Cl)cccc1C2=O	121	< 4.52	
O=C1c2ccsc2C(=O)c2c(F)cccc21		5.07	
CCOC(=O)c1cc2c(s1)C(=O)c1c(Cl)cccc1C2=O	97	5.91	
CCC(=O)c1cc2c(s1)C(=O)c1c(Br)cccc1C2=O	113	5.54	
O=Cc1cc2c(s1)C(=O)c1c(Cl)cccc1C2=O	107	5.33	
CC(=O)c1cc2c(s1)C(=O)c1ccccc1C2=O	253		
O=C1c2ccsc2C(=O)c2c1cccc2C(F)(F)F		5.31	
CCNC(=O)c1cc2c(s1)C(=O)c1c(Cl)cccc1C2=O	109	5.98	
O=C1c2ccsc2C(=O)c2c(I)cccc21		< 4.52	
O=C(c1ccccc1)c1cc2c(s1)C(=O)c1c(Cl)cccc1C2=O	122	5.75	
O=C(Oc1ccccc1)c1cc2c(s1)C(=O)c1c(Cl)cccc1C2=O	97	4.98	
O=C(c1cccs1)c1cc2c(s1)C(=O)c1c(Cl)cccc1C2=O	127	5.81	
CC(=O)c1cc2c(s1)C(=O)c1c(Br)cccc1C2=O	116	5.82	
O=C1c2ccsc2C(=O)c2c(O)cccc21			Activity (HaCaT [1]): Active; Activity [2]: Active; Activity (HaCaT [4]): Active
CCc1noc(-c2cc3c(s2)C(=O)c2c(Cl)cccc2C3=O)n1	121	6.23	Activity (HaCaT [1]): Active; Activity [6]: inactive; Activity [2]: Active; Activity (HaCaT [4]): Active
CCOC(=O)c1cc2c(s1)C(=O)c1c(Br)cccc1C2=O	121	5.76	

SMILES	Activity (HaCaT [3]) [mU/ml]	pIC50 (HaCaT [5])	further results
O=Cc1cc2c(s1)C(=O)c1c(Br)cccc1C2=O		5.42	
CCC(=O)c1cc2c(s1)C(=O)c1c(Cl)cccc1C2=O	116	5.56	
CC1=CC(=O)c2ccccc2C1=O [MENADIONE]			Activity [2]: Active
O=C(c1cccs1)c1cc2c(s1)C(=O)c1c(Br)cccc1C2=O	107	4.92	
CC(=O)c1cc2c(s1)C(=O)c1c(Cl)cccc1C2=O	124		Activity (HaCaT [1]): Active; Activity [2]: Active; Activity (HaCaT [4]): Active
CCN(CC)C(=O)c1cc2c(s1)C(=O)c1c(Cl)cccc1C2=O	112	6.14	
COC(=O)c1cc2c(s1)C(=O)c1c(Br)cccc1C2=O	124	5.66	
O=C(O)c1cc2c(s1)C(=O)c1c(Cl)cccc1C2=O	112	< 4.52	
O=C1c2ccsc2C(=O)c2c(Br)cccc21		4.83	
O=C(c1cccnc1)c1cc2c(s1)C(=O)c1c(Br)cccc1C2=O		5.06	
O=C(Oc1ccccc1)c1cc2c(s1)C(=O)c1c(Br)cccc1C2=O		5.18	
O=C(O)c1cc2c(s1)C(=O)c1c(Br)cccc1C2=O	108	< 4.52	
O=C(c1ccccc1)c1cc2c(s1)C(=O)c1c(Br)cccc1C2=O	121	4.88	
COC(=O)c1cc2c(s1)C(=O)c1c(Cl)cccc1C2=O	130	6.05	
O=C1c2ccsc2C(=O)c2c(Cl)cccc21			Activity (HaCaT [1]): Active; Activity [6]: inactive; Activity [2]: Active; Activity (HaCaT [4]): Active
CCc1noc(-c2cc3c(s2)C(=O)c2c(O)cccc2C3=O)n1			Activity (HaCaT [1]): Active; Activity [2]: Active; Activity (HaCaT [4]): Active
O=C1c2cc(-c3nnn[nH]3)sc2C(=O)c2c(Cl)cccc21	95	< 4.52	
